Source: publication PMC8146912, “Phenolic Compounds of Reynoutria sp. as Modulators of Oral Cavity Lactoperoxidase System” (Antioxidants, 2021)

What was measured:
Type in all cases: biochemical
[1] = molecular target: T1, Lactoperoxidase (LPO) (Bos taurus, UniProt P80025); assay: Ellman's reagent assay of OSCN- formation, […] nm
T1 construct: native enzyme from bovine milk, commercial lyophilisate (Sigma-Aldrich), heme-containing, mature secreted form

[2] = molecular target: T1, Lactoperoxidase (LPO); assay: Ellman's reagent assay of OSCN- formation, […] nm; remark: listed apart in the source
[3] = molecular target: T1, Lactoperoxidase (LPO); assay: stopped-flow spectrophotometry, reduction of LPO Compound II to native LPO; details: 1 µM LPO, 0.75 µM H2O2, 20 mM phosphate pH 6, 15 °C; one-electron donor in peroxidation cycle

| EC50 [1] | IC50 [2] | Compound | k (Compound II -> Native LPO) [3] |
| --- | --- | --- | --- |
| 1310 ± 239 nM | 74100 ± 3620 nM | Oc1cc(O)c2c(c1)O[C@H](c1ccc(O)c(O)c1)[C@H](O)C2 [a, (-)-Epicatechin] |  |
| 9 ± 2 nM | 423 ± 18 nM | Oc1ccc(/C=C/c2cc(O)cc(O)c2)cc1 [b, Resveratrol] |  |
|  |  | Cc1cc(O)c2c(c1)C(=O)c1cc(O)cc(O)c1C2=O [c, Emodin] | this compound may be a substrate for LPO Compound I and Compound II |
